According to doi:10.1101/2025.04.10.648262, “Time-resolved phenotyping at subcellular resolution reveals shared principles and key trade-offs across antimicrobial peptide activities” (bioRxiv, 2026):
Bridge positions count the residues as written; N and C are the ends. Square brackets hold non-standard residues; d marks the D form. Peptide text beside a SMILES is read from it. Nspe = C[C@H](NCC(=O)O)c1ccccc1; Nlys = NCCCCNCC(=O)O

Test system: E. coli strain (CJW7845)
Assay: Time-lapse single-cell phenotyping of inner/outer membrane permeabilization to proteins and growth arrest in microwells
Format: cell-based, Escherichia coli
Parameters: key to Class (timing of growth arrest relative to IM permeabilization to proteins): Class I AMPs and PMs cause growth arrest predominantly associated with inner membrane (IM) permeabilization; class II compounds inhibit growth without substantial IM permeabilization
Conditions: for Class (timing of growth arrest relative to IM permeabilization to proteins) / Type (relative timing of OM and IM permeabilization) / OM-permeabilized cells among IM-permeabilized cells: 2X MIC; for Class (timing of growth arrest relative to IM permeabilization to proteins) / Type (relative timing of OM and IM permeabilization): CJW7845, M9gluCAAT, 37°C, time-lapse microscopy; for OM-permeabilized cells among IM-permeabilized cells: CJW7845, during the experiment; for OM-permeabilized cells (out of all IM-permeabilized cells): 10X MIC, CJW7845
Procedure: For experiments with PDMS microwells, cells were allowed to grow for ~30 min in the temperature-controlled enclosure prior to imaging. A 10X concentrated AMP solution was spiked in (at 1/10 the volume of the well) and mixed well by pipetting after ~20 min from the start of the image acquisition, without interrupting the timelapse sequence. When the uptake of SYTOX Green was monitored, SYTOX Green was included in the AMP solution and spiked in during the experiment to obtain a final concentration of SYTOX Green of 50 nM in the well. This allowed us to monitor healthy cell growth prior to AMP treatment, to rapidly set the desired AMP (or SYTOX Green) concentration from one frame to the next (unlike for flow-controlled injection systems), and to resolve the AMP-induced phenotype in real time. The current design allows for testing up to four independent conditions in parallel.
To analyse the single-cell experiments in microwells, OmniSegger software (https://github.com/tlo-bot/omnisegger), which combines SuperSegger MATLAB-based suite ([Stylianidou et al., 2016]) for cell analysis with Omnipose segmentation ([Cutler et al., 2022]), was used to first process the microscopy images by performing drift correction, cell segmentation, and cell linking. Given that AMP-treated cells can display extreme phenotypes, such as exceedingly bright and/or heterogeneous phase contrast signal (likely a result of the widely changing intracellular density upon AMP treatment) and that the software’s pre-trained model bact_phase_omni ([Cutler et al, 2022]) tended to split cells before cell division was completed, a new Omnipose model was trained from scratch starting from bact_phase_omni-generated masks that were further corrected and curated using custom-made Python scripts (screening_good_bad.py and generate_training_dataset.py). Details on the Omnipose model retraining can be found in a previous publication ([Thappeta et al., 2025]). The final model (omnipose_phase_microwells_model) and corresponding training datasets are available at https://github.com/JacobsWagnerLab/published/tree/master/Fragasso_et_al_2025 and BioImage Archive (accession number: S-BIAD1823), respectively.
MATLAB files of the linked cell trajectories output from OmniSegger were then imported, background subtracted using background_subtraction.py, which was adapted from a previous study ([Papagiannakis et al., 2025]), and converted to Python data structures (import_processing_code.py), from which cell features such as cell area, nucleoid area, mean fluorescence intensity, etc., were extracted for each cell at each frame. The exported dataframes were further processed to estimate instantaneous growth rates and were run through a series of functions to perform curation based on cell areas and instantaneous growth rates over time (post_processing_curation_functions.py). […] Represented data points were pooled from multiple replicates.
Analysis of strain CJW7845 proceeded by extracting the timings of permeabilization of the outer and inner membranes based on the mean fluorescence intensities of mScarlet-I and/or mTagBFP2 fluorescent proteins (using function get_permeabilization_time.py), cell growth arrest, and the initiation time of growth inhibition. To obtain accurate timings underlying membrane permeabilization events, information from both the signal intensity itself as well as its derivative were combined, which enabled us to accurately resolve the relevant changes in fluorescent protein signal beyond the intrinsic high-frequency noise and low-frequency photobleaching. Inner membrane permeabilization to proteins can result in two possible phenotypes when simultaneously monitoring freely diffusing periplasmic and cytoplasmic probes, depending on which membrane (outer or inner) becomes permeabilized first. When the outer membrane is first permeabilized, mScarlet-I signal is lost first, followed by mTagBFP2 when the inner membrane becomes also permeabilized. […]

Row | Structure (SMILES) | Class (timing of growth arrest relative to IM permeabilization to proteins) | Type (relative timing of OM and IM permeabilization) | OM-permeabilized cells among IM-permeabilized cells | Cells in which the IM became permeabilized (concentrations close to the MIC (2X MIC)) | OM-permeabilized cells (out of all IM-permeabilized cells)
1 | CC[C@@H](C)[C@@H](NC(=O)[C@@H](C)NC(=O)[C@@H](CCCNC(=N)N)NC(=O)[C@@H](Cc1c[nH]c2ccccc12)NC(=O)[C@@H](CCC(N)=O)NC(=O)[C@H](N)C(C)C)C(=O)N[C@H](CCCNC(=N)N)C(=O)N[C@@H](C(=O)N[C@H](CCCNC(=N)N)C(=O)N[C@@H](C(=O)N[C@@H](C(=O)N[C@H](CCCNC(=N)N)C(N)=O)[C@H](C)CC)C(C)C)C(C)C [DJK-5] (H-[dV][dQ][dW][dR][dA][dI][dR][dV][dR][dV][dI][dR]-NH2; N-terminus and C-terminus assumed) | II | B (type B AMPs and PMs permeabilize the IM well before (>10 min) the OM) | 81/151 | > 60% | 
2 | CC[C@H](C)[C@@H]1NC(=O)CNC(=O)[C@H](CCCNC(=N)N)NC(=O)[C@H](Cc2ccc(O)cc2)NC(=O)[C@@H]2CSSC[C@H](NC1=O)C(=O)N[C@@H](Cc1ccc(O)cc1)C(=O)N[C@@H](CCCNC(=N)N)C(=O)N[C@@H](CCCNC(=N)N)C(=O)N[C@H](C(=O)N[C@@H](CCCNC(=N)N)C(N)=O)CSSC[C@H](NC(=O)[C@H](Cc1c[nH]c3ccccc13)NC(=O)[C@@H](N)CCCCN)C(=O)N[C@@H](Cc1ccccc1)C(=O)N[C@@H](CCCNC(=N)N)C(=O)N[C@@H](C(C)C)C(=O)N2 [Tac1, tachyplesin-1] (H-KWCFRVCYRGICYRRCR-NH2; disulfide 3-16, 7-12 (inferred); N-terminus assumed) | I | A (type A AMPs predominantly permeabilize the outer membrane (OM) within 10 min of the IM) | 273/273 |  | 82/128
3 | C[C@@H](c1ccccc1)N(CC(N)=O)C(=O)CN(C(=O)CN(CCCCN)C(=O)CN(C(=O)CN(C(=O)CN(CCCCN)C(=O)CN(C(=O)CN(C(=O)CN(CCCCN)C(=O)CN(C(=O)CN(C(=O)CNCCCCN)[C@@H](C)c1ccccc1)[C@@H](C)c1ccccc1)[C@@H](C)c1ccccc1)[C@@H](C)c1ccccc1)[C@@H](C)c1ccccc1)[C@@H](C)c1ccccc1)[C@@H](C)c1ccccc1 [TM1] (H-[Nlys][Nspe][Nspe][Nlys][Nspe][Nspe][Nlys][Nspe][Nspe][Nlys][Nspe][Nspe]-NH2) | I | B (type B AMPs and PMs permeabilize the IM well before (>10 min) the OM) | 24/97 |  | 77/171
